Experimental data reported in PMC11577759, “The structure of lipopeptides impacts their antiviral activity and mode of action against SARS-CoV-2 in vitro” (Applied and Environmental Microbiology, 2024).
Converted amounts (≈) assume the structure as drawn. “Also recorded” adds a separate entry of the source. Read-outs that look alike come from different tables or passages of the source. Starred links: 1 amine or outer side, 2 acyl side, 3 side chain; linkers in the order of their positions; H or OH if unused. Positions of bridges follow the written chain, without caps; N, C: chain ends. Non-standard residues stand in square brackets, D forms with d. Residues, ends and D or L forms follow the SMILES beside them. *: point of attachment. X1 = CC(C)CCCCCCCCC[C@H](CC(=O)[*:1])O[*:2]; d(aThr) = C[C@@H](O)[C@@H](N)C(=O)O; X2 = CCCCCCCCCCCC(O)CC(=O)*

Assays:
[1] = Cytotoxicity, CyQUANT XTT cell viability assay; type: cell-based, Chlorocebus sp.; settings: Chlorocebus sp. (African green monkey), Vero E6 cells; for IC50 at 72 h: Vero E6 cells (kidney epithelial cells), XTT, mean (standard deviation), fengycin and caspofungin determined at higher concentrations in a subsequent experiment, read-out: IC50 (half maximal inhibitory concentration, cytotoxicity); for viability at 72 h: surfactin 35, WLIP 20, fengycin 50, caspofungin 100 µg/mL, Vero E6 (Fig. 5)
Protocol: (§1) Chlorocebus sp. kidney epithelial cells (Vero E6; ATCC VERO C1008) were cultured in Dulbecco’s Modified Eagle medium (DMEM) High Glucose w/ Stable Glutamine w/ Sodium Pyruvate (VWR, USA) supplemented with 2% (vol/vol) of decomplemented fetal bovine serum (FBS, Biowest, France) and 1% (vol/vol) Penicillin-Streptomycin (VWR, USA). The cells were grown at 37°C in a humidified 5% CO2 atmosphere. Cells were routinely passaged when they reached 100% confluence and were passaged until passage 15.
(§2) The cytotoxic activity of the lipopeptides was assessed using a CyQUANT XTT Cell Viability Assay (Thermo Fisher Scientific) according to the manufacturer’s instructions. […] The cells were then incubated for 72 h at 37°C. The kit was then used following the manufacturer’s instructions, and the plates were read at 450 nm and 660 nm using a Multiskan GO Microplate Spectrophotometer (Thermo Fisher Scientific). The percentage of viable cells was calculated as (AT450 − AT660 − AB450) / (AC450 − AC660) × 100%, where AT450, AT660, AB450, AC450, and AC660 represent the absorbance of the tested well at 450 nm, of the tested well at 660 nm, of the blank (only medium) at 450 nm, of the control cells at 450 nm, and of the control cells at 660 nm, respectively. One hundred percent viability corresponds to the viability of uninfected cells. DMSO concentrations ranging from 0.5% (vol/vol) to 0.001% (vol/vol) were used as a negative control for the assay. Every sample was tested in triplicate.

[2] = system: SARS-CoV-2; assay: Replication / antiviral assay, viral RNA in supernatant by RT-qPCR; type: cell-based; settings: for EC50 / EC50 (half maximal effective concentration): mean (standard deviation); for EC50: read-out: EC50 (half maximal effective concentration); for Viral RNA concentration per milliliter: surfactin 35, WLIP 20, caspofungin 100 µg/mL; for Reduction of viral RNA concentration / Reduction in viral RNA: surfactin 35, WLIP 20, fengycin 50, caspofungin 100 µg/mL; for Reduction in viral RNA: 72 h (Fig. 5)
[3] = system: Vero E6 cells; assay: Cytotoxicity, CyQUANT XTT cell viability assay; type: cell-based, Chlorocebus sp.; settings: for Cytotoxicity: concentrations up to 100 µg/mL, Vero E6, 72 h; for IC50 (half maximal inhibitory concentration, cytotoxicity): Vero E6 cells, XTT, mean (standard deviation), fengycin and caspofungin determined at higher concentrations in a subsequent experiment; for IC50 (half maximal inhibitory concentration, cytotoxicity) / Cell viability: 72 h; for Cell viability: 100 µg/mL, Vero E6
Protocol: as §1, §2

[4] = system: SARS-CoV-2; assay: Binding inhibition: pre-treatment of SARS-CoV-2 and incubation on cells; type: cell-based; settings: virus pre-treated, surfactin 35, WLIP 20, fengycin 50, caspofungin 100 µg/mL
[5] = system: SARS-CoV-2; type: cell-based; settings: cells pre-treated, surfactin 35, WLIP 20, fengycin 50, caspofungin 100 µg/mL
[6] = system: SARS-CoV-2; settings: surfactin 35, WLIP 20, fengycin 50, caspofungin 100 µg/mL; 100% = untreated infected cells at 37°C
Protocol: To determine the impact of lipopeptides on the fusion step, intracellular viral RNA was quantified after infection of cells with SARS-CoV-2 but before the budding step. […] The cells were pre-chilled for 15 min on ice. The cells were infected with SARS-CoV-2 (MOI of 10) in DMEM + 2% FBS and incubated for 2 h on ice with gentle agitation. The inoculum was removed, and the cells were gently washed three times with ice-cold DPBS. The positive control was inactivated to determine the basal viral RNA concentration after binding of the virus. The lipopeptides were added to room temperature DMEM + 2% (vol/vol) FBS and incubated at 37°C for 7 h. […] The cells were rinsed with DPBS, and the wells were dried. The samples were inactivated for 30 min at 70°C before quantification of the viral RNA by RT-qPCR. Every sample was tested in triplicate.

[7] = system: Vero cells; set-up: method as in earlier work; settings: ref 38 (Shekunov et al.); cited from earlier work
[8] = system: SARS-CoV-2; assay: Budding inhibition assay; type: cell-based; settings: 10 h pi, surfactin 35 µg/mL
Protocol: Fresh medium was added to the cells, and the plates were incubated for 5 h at 37°C. The supernatant was discarded, and lipopeptides were added to the cells. A sample of cell supernatant was taken every hour for 4 h. After infection, the control was kept at 4°C to inhibit the release of virions, and act as a positive control of the experiment. […] Every sample was tested in triplicate.

[9] = system: SARS-CoV-2; set-up: method as in doi:10.3390/applmicrobiol2030052; settings: 1 mg/mL, Vero E6 cells; cited from earlier work
[10] = system: SARS-CoV-2; assay: Direct antiviral assay by viral titration (TCID50); settings: 1 h incubation with virus, vs virus alone
[11] = system: SARS-CoV-2; set-up: method as in PMID 36868316; settings: co-incubated with SARS-CoV-2; 12.5 µg/mL iturin A, 25 µg/mL mycosubtilin; Vero cells; cited from earlier work
[12] = 100 µg/mL, 72 h pi, compared to untreated infected cells
[13] = 24 h pi, serum diluted five times
[14] = 72 h pi, serum diluted five times, […]
[15] = Severe acute respiratory syndrome coronavirus 2, Vero C1008, 72 h, […]
[16] = SARS-CoV-2 MOI 0.01, Vero E6, viral RNA at 72 h pi by RT-qPCR

CCC(=O)CCCCC[C@@H]1NC(=O)[C@H]2CCCCN2C(=O)[C@H]([C@@H](C)CC)NC(=O)[C@H](Cc2cn(OC)c3ccccc23)NC1=O [Apicidin]
IC50 at 72 h [1]: 0.7 µg/mL (≈ 1.12 µM)
Maximal RNA reduction at 100 µg/mL [2, 12]: 3.7-log
EC50 ([2]; Severe acute respiratory syndrome coronavirus 2, Vero C1008, SARS-CoV-2 MOI 0.01, Vero E6, viral RNA at 72 h pi by RT-qPCR): 25.2 µg/mL (≈ 40.4 µM)

CC[C@H](C)C[C@H](C)CCCCCCCCC(=O)N[C@H]1C[C@@H](O)[C@@H](NCCN)NC(=O)[C@@H]2[C@@H](O)CCN2C(=O)[C@H]([C@H](O)CCN)NC(=O)[C@H]([C@H](O)[C@@H](O)c2ccc(O)cc2)NC(=O)[C@@H]2C[C@@H](O)CN2C(=O)[C@H]([C@@H](C)O)NC1=O [Caspofungin, reference compound]
IC50 at 72 h [1]: 129 µg/mL (≈ 118 µM)
viability at 72 h [1]: 96.9%
Cytotoxicity [3]: did not cause any cytotoxicity; also recorded: without any apparent cytotoxicity
Maximal RNA reduction at 100 µg/mL [2]: 3.7-log
Viral RNA concentration per milliliter [2, 13]: 7.9 × 10^2 RNA concentration per milliliter
Viral RNA concentration per milliliter ([2]; 72 h pi): 1.8 × 10^4 RNA concentration per milliliter
Reduction of viral RNA concentration [2, 14]: 2.1 log
EC50 [2, 15]: 140 µg/mL (≈ 128 µM)
Maximal RNA reduction at 100 µg/mL ([2]; listed as caspofungin): 3.7 log
Reduction in viral RNA [2]: 2.4 log
Binding percentage of SARS-CoV-2 to cells [4]: did not show any effect on the binding percentage
Binding percentage of SARS-CoV-2 to cells [5]: 81%
Fusion percentage [6]: 51.4%

CCCCCCCCCC(=O)N[C@@H](Cc1c[nH]c2ccccc12)C(=O)N[C@H](CC(N)=O)C(=O)N[C@@H](CC(=O)O)C(=O)N[C@@H]1C(=O)NCC(=O)N[C@@H](CCCN)C(=O)N[C@@H](CC(=O)O)C(=O)N[C@H](C)C(=O)N[C@@H](CC(=O)O)C(=O)NCC(=O)N[C@H](CO)C(=O)N[C@@H]([C@H](C)CC(=O)O)C(=O)N[C@@H](CC(=O)c2ccccc2N)C(=O)O[C@@H]1C [Daptomycin, reference compound]
IC50 at 72 h [1]: > 100 µg/mL
Cytotoxicity [3]: did not cause any cytotoxicity
Maximal RNA reduction at 100 µg/mL [2]: 0.3-log
EC50 [2, 15]: > 100 µg/mL
Maximal RNA reduction at 100 µg/mL ([2]; listed as daptomycin): no effect
IC50 [7]: 0.7 µg/mL (≈ 0.432 µM)

CCCCCCCCCCCC(O)CC(=O)N[C@@H](CC(C)C)C(=O)N[C@H](CCC(=O)O)C(=O)N[C@H]1C(=O)N[C@H](C(C)C)C(=O)N[C@@H](CC(C)C)C(=O)N[C@H](CO)C(=O)N[C@@H](CC(C)C)C(=O)N[C@@H](CC(C)C)C(=O)N[C@H](CO)C(=O)N[C@@H](C(C)C)C(=O)O[C@@H]1C (some centres unmarked) [Orfamide B] (X2-L[dE][d(aThr)][dV]L[dS]LL[dS]V; ester 3-C)
IC50 (half maximal inhibitory concentration, cytotoxicity) [3]: 14.6 (0.4) µg/mL
Maximal RNA reduction at 100 µg/mL [2, 12]: 6.3-log
Maximal RNA reduction at 100 µg/mL ([2]; 100 µg/mL, 72 h pi, compared to untreated infected cells, listed as orfamide B): 6.3 log
EC50 (half maximal effective concentration) [2, 16]: 12.8 (4.1) µg/mL

CC(C)CCCCCCCCC[C@@H]1CC(=O)N[C@@H](CCC(=O)O)C(=O)N[C@@H](CC(C)C)C(=O)N[C@H](CC(C)C)C(=O)N[C@@H](C(C)C)C(=O)N[C@@H](CC(=O)O)C(=O)N[C@H](CC(C)C)C(=O)N[C@@H](CC(C)C)C(=O)O1 [Surfactin] (EL[dL]VD[dL]L; linker N-C via X1)
IC50 at 72 h [1]: 51.5 µg/mL (≈ 49.7 µM)
viability at 72 h, 45 µg/mL ([1]; 45 µg/mL): ~0%
viability at 72 h [1]: 98.5%
Maximal RNA reduction at 100 µg/mL [2]: 6.3-log
Viral RNA ([2]; 45 µg/mL): no viral RNA was detected
SARS-CoV-2 RNA concentration ([2]; 100 µg/mL, at every timepoint (24, 48, 72 h)): non-detectable levels
Viral RNA concentration per milliliter [2, 13]: 2.5 × 10^2 RNA concentration per milliliter
Reduction of viral RNA concentration ([2]; 24 h pi, serum diluted five times, […]): 1.1 log
Viral RNA concentration per milliliter ([2]; 72 h pi): 5.7 × 10^1 RNA concentration per milliliter
Reduction of viral RNA concentration [2, 14]: 4.6 log
EC50 [2, 15]: 50 µg/mL (≈ 48.2 µM)
Maximal RNA reduction at 100 µg/mL ([2]; listed as surfactin): 6.3 log
Reduction in viral RNA [2]: 2.9 log
Binding percentage of SARS-CoV-2 to cells [4]: 34.7%
Binding percentage of SARS-CoV-2 to cells [5]: 10.0%
Reduction of RNA concentration (budding) [8]: 1 log
RNA concentration per milliliter in supernatant (budding) ([8]; infected cells without treatment 8646.9): 858.7 RNA concentration per milliliter
Fusion percentage [6]: 10.4%
IC50 [7]: 0.6 µg/mL (≈ 0.579 µM)
SARS-CoV-2 infectivity [9]: able to reduce SARS-CoV-2 infectivity
Reduction in viral titer (direct effect) ([10]; 100 µg/mL): 1.6 log
Reduction in viral titer (direct effect) ([10]; surfactin 35, WLIP 20, fengycin 50, caspofungin 100 µg/mL, serum diluted five times): did not directly inactivate SARS-CoV-2

Colistin (polymyxin E) [reference compound]
IC50 (half maximal inhibitory concentration, cytotoxicity) [3]: >100.0 µg/mL
Cytotoxicity [3]: did not cause any cytotoxicity
Maximal RNA reduction at 100 µg/mL [2, 12]: 0.2-log
Maximal RNA reduction at 100 µg/mL ([2]; 100 µg/mL, 72 h pi, compared to untreated infected cells, listed as colistin): no activity up to 100 µg/mL
EC50 (half maximal effective concentration) [2, 16]: >100.0 µg/mL

Fusaricidin
IC50 (half maximal inhibitory concentration, cytotoxicity) [3]: 24.6 (1.1) µg/mL
Maximal RNA reduction at 100 µg/mL [2, 12]: 3.3-log
EC50 (half maximal effective concentration) [2, 16]: 51.2 (13.6) µg/mL

Iturin A
Cell viability [3]: no cell viability was observed
IC50 (half maximal inhibitory concentration, cytotoxicity) [3]: 4.9 (0.5) µg/mL
Maximal RNA reduction at 100 µg/mL [2, 12]: 3.9-log
EC50 (half maximal effective concentration) [2, 16]: 18.2 (1.8) µg/mL
Viral titer and SARS-CoV-2 cytopathic effects [11]: could reduce the viral titer and SARS-CoV-2 cytopathic effects (CPEs)

Lichenysin
IC50 (half maximal inhibitory concentration, cytotoxicity) [3]: 28.1 (1.4) µg/mL
Maximal RNA reduction at 100 µg/mL [2, 12]: 6.3-log
Maximal RNA reduction at 100 µg/mL ([2]; 100 µg/mL, 72 h pi, compared to untreated infected cells, listed as lichenysin): 6.3 log
EC50 (half maximal effective concentration) [2, 16]: 25.9 (3.2) µg/mL

Mycosubtilin
Cell viability [3]: no cell viability was observed
IC50 (half maximal inhibitory concentration, cytotoxicity) [3]: 1.8 (0.1) µg/mL
Maximal RNA reduction at 100 µg/mL [2, 12]: 4.1-log
EC50 (half maximal effective concentration) [2, 16]: 12.9 (2.0) µg/mL
Viral titer and SARS-CoV-2 cytopathic effects [11]: could reduce the viral titer and SARS-CoV-2 cytopathic effects (CPEs)

Polymyxin B [reference compound]
IC50 (half maximal inhibitory concentration, cytotoxicity) [3]: >100.0 µg/mL
Cytotoxicity [3]: did not cause any cytotoxicity
Maximal RNA reduction at 100 µg/mL [2, 12]: 0.3-log
Maximal RNA reduction at 100 µg/mL ([2]; 100 µg/mL, 72 h pi, compared to untreated infected cells, listed as polymyxin B): no activity up to 100 µg/mL
EC50 (half maximal effective concentration) [2, 16]: >100.0 µg/mL
IC50 [7]: 1.1 µg/mL

Pumilacidin
IC50 (half maximal inhibitory concentration, cytotoxicity) [3]: 36.0 (3.5) µg/mL
Maximal RNA reduction at 100 µg/mL [2, 12]: 6.3-log
Maximal RNA reduction at 100 µg/mL ([2]; 100 µg/mL, 72 h pi, compared to untreated infected cells, listed as pumilacidin): 6.3 log
EC50 (half maximal effective concentration) [2, 16]: 47.8 (0.4) µg/mL
